Measured values published in patent publication US7531195B2, “Schisandrin B preparation” (priority 2005, dated 2009).
Marks after values point to notes of the source that are not given here.

Tests used:
Myocardial Mitochondria = assay: Myocardial mitochondrial glutathione antioxidant status, young male and female rats; type: in vivo, rat; settings: 35 days
Experimental: Male/Female adult Sprague-Dawley rats (˜10 weeks old) were maintained under a 12-h dark/light cycle at about 22° C. and allowed food and water ad libitum. Animals were randomly divided into groups, with at least 5 animals in each. In the pretreatment groups, rats were treated intragastrically with (−) Schisandrin B at a daily dose of 1 or 10 mg/kg for 35 days. Control animals received oil only (10 ml/kg). Twenty-four hours following the last dosing, hearts were isolated from control or drug-pretreated rats and then subjected to Langendorff perfusion as described below.
Myocardial tissue samples were rinsed with ice-cold isotonic buffer (50 mM Tris, 0.32 M sucrose, 1 mM Na2EDTA, 0.2 mg/ml soybean trypsin inhibitor, 0.2 mg/ml bacitracine, 0.16 mg/ml benzamidine). Tissue homogenates were prepared by homogenizing 0.8 g of myocardial tissue in 8 ml ice-cold isotonic buffer and the homogenates were used for the preparation of mitochondrial fractions by differential centrifugation, as described in Chiu and Ko (2004). The mitochondrial pellets were resuspended in 1.5 ml of isotonic buffer containing 150 μl of 2 mg/ml soybean trypsin inhibitor and constituted the mitochondrial fractions.
Aliquots (500 μl) of mitochondrial fractions were taken for measuring mitochondrial GSH level by HPLC methods, using GSH as standards, respectively, as described (Chiu et al 2002). Aliquots (400 μl) of mitochondrial fractions were mixed with 933 μl Triton X-100 solution (0.3%, v/v, in isotonic buffer) and sonicated for 2 min on ice. The mixtures were then subjected to measurements of mitochondrial glutathione reductase (GRD), Se-glutathione peroxidase (GPX) and glutathione S-transferases (GST) activities by spectrophotometric methods, as described in Chiu et al. (2002).

[1] = test system: mitochondria of brain, heart, liver and skeletal muscle; assay: Mitochondrial ATP generation capacity in various tissues of young female rats; type: in vivo, rat; settings: 15 days; for ATP generation: (−) Sch B, α-LA, α-Toc at daily 10, 5 and 70 mg/kg respectively
H9c2 cells = assay: Cellular GSH level in H9c2 cells with or without menadione challenge; type: cell-based, rat
Experimental: H9c2 cells, a permanent cell line derived from cardiac myoblasts of rat embryo, have early been characterized as a suitable model of myocardial cells [Hescheler et al. 1991]. H9c2 cells were cultured as monolayers in Dulbecco's modified Eagle's medium (GIBCO BRL) supplemented with 10% (v/v) fetal bovine serum. The medium contained glucose (4.5 g/L) and glutamine (4.5 mM), supplemented with NaHCO3 (17 mM), penicillin (100 IU/ml), and streptomycin (100 μg/ml). Cells were grown under an atmosphere of 5% CO2 in air at 37° C. The medium was replaced by fresh medium every 2 or 3 days. A stock of cells was grown in a 75 cm culture flask and split before confluence at a subcultivation ratio of 1:10. Cells used for experiments were seeded at a density of 3.75×10^4 cells/well on a 12-well culture plate, and the cells were grown for 24 h to about 80% confluence prior to drug treatment.
Cultured H9c2 cells were treated with (−) Schisandrin B, (+) Schisandrin B or (±) Schisandrin B (dissolved in DMSO) at 6.25 μM (0.2% DMSO final concentration) for 16 h. Control cells were given the vehicle (i.e. DMSO) only. Immediately following the drug or vehicle pretreatment, the cells were challenged with menadione (dissolved in ethanol) at 12.5 μM (0.2% ethanol final concentration) for 4 h. The control cells were treated with the medium containing 0.2% ethanol only. After the menadione challenge, the medium was taken for the measurement of LDH activity, an biochemical index of cell injury.
The cells were washed twice with 0.5 ml cold phosphate-buffered saline (PBS), An aliquot (200 μl) of 3% sulfonsalicyclic acid was then added, and the mixture was incubate at 4° C. for 10 min. After centrifuging at 300 g for 15 min at 4° C., the supernatant was used for GSH measurement by an enzymatic method of Griffith (1980).

[2] = female rats, 1 mg/kg daily oral
[3] = female rats, 10 mg/kg daily oral
[4] = MENADIONE 12.5 μM for 4 h, drug 6.25 μM for 16 h
[5] = NON-MENADIONE, 6.25 μM for 16 h

## COc1cc2c(c(OC)c1OC)-c1c(cc3c(c1OC)OCO3)CC(C)C(C)C2 (single isomer, unassigned; (-)) [(−) Sch B, (−) Schisandrin B]
Myocardial Mitochondria; [2]
  GPX: 73.2 ± 4.98^b mU/mg Protein
  GPX, percent increase vs untreated control: (43%)
  GRD: 6.30 ± 0.37^b mU/mg protein
  GRD, percent increase vs untreated control: (34%)
  GSH: 17.3 ± 1.11^b nmol/mg protein
  GSH, percent increase vs untreated control: (60%)
  GST: 14.1 ± 0.58^b mU/mg protein
  GST, percent increase vs untreated control: (37%)
Myocardial Mitochondria; [3]
  GPX: 78.3 ± 2.94^b mU/mg Protein
  GPX, percent increase vs untreated control: (53%)
  GRD: 8.02 ± 0.55^b mU/mg protein
  GRD, percent increase vs untreated control: (71%)
  GSH: 21.6 ± 0.38^b nmol/mg protein
  GSH, percent increase vs untreated control: (107%)
  GST: 16.9 ± 0.90^b mU/mg protein
  GST, percent increase vs untreated control: (63%)
Myocardial Mitochondria; male rats, 1 mg/kg daily oral
  GPX: 77.3 ± 3.78^a mU/mg Protein
  GPX, percent increase vs untreated control: (48%)
  GRD: 6.76 ± 0.29 mU/mg protein
  GRD, percent increase vs untreated control: (26%)
  GSH: 18.1 ± 1.06^a nmol/mg protein
  GSH, percent increase vs untreated control: (56%)
  GST: 12.8 ± 0.10 mU/mg protein
  GST, percent increase vs untreated control: (65%)
Myocardial Mitochondria; male rats, 10 mg/kg daily oral
  GPX: 83.7 ± 2.12^a mU/mg Protein
  GPX, percent increase vs untreated control: (60%)
  GRD: 7.59 ± 0.13^a mU/mg protein
  GRD, percent increase vs untreated control: (42%)
  GSH: 23.8 ± 1.10^a nmol/mg protein
  GSH, percent increase vs untreated control: (105%)
  GST: 14.5 ± 0.36^a mU/mg protein
  GST, percent increase vs untreated control: (83%)
[1]; BRAIN
  ATP generation: 143 ± 2 percent control
[1]; HEART
  ATP generation: 131 ± 4 percent control
[1]; LIVER
  ATP generation: 134 ± 5 percent control
[1]; SKELETAL MUSCLE, 10 mg/kg daily
  change in ATP generation in skeletal muscle tissue: No detectable change
[1]; SKELETAL MUSCLE
  ATP generation: 105 ± 41 percent control
H9c2 cells; [4]
  GSH Level: 33.3 ± 1.75 nmol/mg protein
  GSH Level, percent increase vs menadione control: (81%)
H9c2 cells; [5]
  GSH Level: 64.0 ± 2.96 nmol/mg protein
  GSH Level, percent increase vs non-menadione control: (84%)
